Source: US7244762B2, “Antitumoral d-homoestra-1,3,5 (10)-trien-3-yl 2-substituted sulfamates” (Sterix Limited, priority 2003, dated 2007)
pIC50: −log10 of the molar value.

Tests used:
[1] = molecular target: T1, tubulin (microtubular protein purified from pig brains) (Sus scrofa, UniProt P02550+P02554); experiment: Inhibition of tubulin polymerization (turbidimetry at 340 nm); type: biochemical; conditions: pig brain microtubular protein 1 mg/ml, 0.25 mmol GTP, 37° C.
T1 construct: microtubular protein was purified from pig brains via cydic assembling/disassembling; from tissue; host or cells: pig brain
T1 sequence (P02550 whole entry): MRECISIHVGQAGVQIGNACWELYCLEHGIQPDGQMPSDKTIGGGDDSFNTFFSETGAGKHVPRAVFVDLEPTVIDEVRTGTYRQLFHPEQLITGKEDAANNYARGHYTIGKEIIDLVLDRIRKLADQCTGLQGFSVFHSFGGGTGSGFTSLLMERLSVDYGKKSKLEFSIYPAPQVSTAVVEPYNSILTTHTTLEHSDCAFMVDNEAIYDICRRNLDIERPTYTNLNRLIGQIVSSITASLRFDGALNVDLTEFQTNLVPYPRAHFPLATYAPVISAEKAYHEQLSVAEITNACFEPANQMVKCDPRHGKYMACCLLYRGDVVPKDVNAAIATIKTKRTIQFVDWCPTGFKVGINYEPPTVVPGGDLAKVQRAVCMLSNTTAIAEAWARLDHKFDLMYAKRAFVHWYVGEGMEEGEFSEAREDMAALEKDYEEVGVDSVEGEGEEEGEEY
T1 sequence (P02554 whole entry): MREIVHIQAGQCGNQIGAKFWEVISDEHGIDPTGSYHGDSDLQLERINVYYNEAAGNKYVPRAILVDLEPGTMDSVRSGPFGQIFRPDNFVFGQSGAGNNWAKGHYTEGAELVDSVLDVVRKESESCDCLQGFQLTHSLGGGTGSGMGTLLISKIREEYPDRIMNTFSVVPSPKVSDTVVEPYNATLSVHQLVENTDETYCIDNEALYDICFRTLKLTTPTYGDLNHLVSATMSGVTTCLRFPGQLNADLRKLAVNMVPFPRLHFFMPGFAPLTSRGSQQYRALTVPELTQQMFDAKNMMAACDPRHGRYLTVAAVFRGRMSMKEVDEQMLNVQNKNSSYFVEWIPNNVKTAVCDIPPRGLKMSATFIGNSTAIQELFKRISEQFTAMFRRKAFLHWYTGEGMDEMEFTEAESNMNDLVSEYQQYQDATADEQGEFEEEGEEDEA
Method: The in-vitro testing of the tubulin polymerization influence was performed as follows:
According to Shelanski et al. (Shelanski et al. Proc. Natl. Acad. Sci. USA 1973, 70, 765-8), microtubular protein was purified from pig brains via cydic assembling/disassembling. The buffer system used had the following composition: 20 mmol of PIPES (1,4-piperazine-diethane-sulfonic acid, pKa 6.8), 80 mmol of NaCl, 0.5 mmol of MgCl2, 1 mmol of EGTA [ethylene glycol-bis-(2-aminoethylene)-tetraacetic acid].
For active ingredient testing, protein concentrations of 1 mg/ml (about 10^−5 mmol of tubulin) were used. The determination of protein was carried out according to the Lowry Method (Lowry et al. J. Biol. Chem. 1951, 193, 265-75) with bovine serum albumin as a standard. The assembling of microtubuli was carried out in the presence of 0.25 mmol of GTP and heating the samples to 37° C.
The microtubulus formation was examined by means of turbidimetry at a wavelength of 340 nm.
Testing of the active ingredients was carried out by their addition at the beginning of the assembling or in the state of equilibrium. […] To monitor action and to evaluate the measured turbidity values, a transmission electron microscopic study (CEM 902 A, Zeiss/Oberkochen) of the assemblates was always performed after negative staining with 1% aqueous uranyl acetate.

[2] = tested on: DU145 human prostate tumor cells; experiment: Inhibition of cell proliferation, crystal violet staining; type: cell-based; conditions: DU145, 4 days incubation
Method: (§1) Cell cultures of the following cell lines were prepared in 96-well microtiter plates: • 1. MaTu/ADR multidrug-resistant human breast tumor cells (Epo GmbH Berlin), 5000 cells/well. • 2. HCT116 human colon tumor cells (ATCC CCL-247), 3000 cells/well. • 3. NCl-H460 human non-small-cell lung cancer cells (ATCC HTB-177), 3000 cells/well. • 4. DU145 human prostate tumor cells (ATCC HTB-81), 5000 cells/well. • 5. HMVEC human primary dermal microvascular endothelial cells, 7500 cells/well.
(§2) After 24 hours of incubation in a cell culture incubator at 37° C., the cells of a microtiter plate were stained with crystal violet (reference plate), while the cells in the test plates were incubated for 4 days with the test substances in the concentrations […], as well as with the DMSO solvent by itself (solvent control). The cell proliferation was determined by staining cells with crystal violet. The extinction of the crystal violet was determined by photometry at 595 nm. The percentage of the change in the cell number in the test plates was determined after the extinction values were normalized to the reference plate (0%) and to the solvent control (100%). The semi-maximal inhibition of the cell growth (IC50) was determined as the substance concentration, in which 50% of the cell number of the solvent controls were present.

[3] = tested on: HCT116 human colon tumor cells; experiment: as above; type: cell-based; conditions: HCT116, 4 days incubation
Method: as §1, §2

[4] = tested on: HMVEC human primary dermal microvascular endothelial cells; experiment: as above; type: cell-based; conditions: 4 days incubation
Method: as §1, §2

[5] = tested on: MaTu/ADR multidrug-resistant human breast tumor cells; experiment: as above; type: cell-based; conditions: 4 days incubation
Method: as §1, §2

[6] = tested on: NCl-H460 human non-small-cell lung cancer cells; experiment: as above; type: cell-based; conditions: NCl-H460, 4 days incubation
Method: as §1, §2

| Compound | pIC50 [1] | pIC50 ([2]; Homo sapiens, DU-145, 96 h) | pIC50 ([3]; Homo sapiens, HCT-116, 96 h) | pIC50 ([5]; Homo sapiens, 96 h) | pIC50 ([6]; Homo sapiens, 96 h) | pIC50 [2] | pIC50 [3] | pIC50 [5] | pIC50 [6] | pIC50 ([4]; Homo sapiens, 96 h) | pIC50 [4] |
| --- | --- | --- | --- | --- | --- | --- | --- | --- | --- | --- | --- |
| COc1cc2c(cc1OS(N)(=O)=O)CC[C@@H]1[C@@H]2CC[C@]2(C)CCCC[C@@H]12 [(2), 2-Methoxy-17a-homoestra-1,3,5(10)-trien-3-yl Sulfamate] | 6.02 | 6.22 | 6.22 | 6.70 | 6.22 |  |  |  |  | 6.30 |  |
| CC(=O)O[C@H]1C(=O)[C@@]2(C)[C@H]([C@H](OC(=O)c3ccccc3)[C@]3(O)C[C@H](OC(=O)[C@H](O)[C@@H](NC(=O)c4ccccc4)c4ccccc4)C(C)=C1C3(C)C)[C@]1(OC(C)=O)CO[C@@H]1C[C@@H]2O [Taxol, reference compound] |  | 8.40 | 8.40 | 6.40 | 8.40 |  |  |  |  | 8.40 |  |
| COc1cc2c(cc1OS(N)(=O)=O)CC[C@@H]1[C@@H]2CC[C@]2(C)C(=O)CCC[C@@H]12 [(1), 2-Methoxy-17a-oxo-17a-homoestra-1,3,5(10)-trien-3-yl Sulfamate] |  |  |  |  |  | 6.30 | 6.74 | > 7.00 | 6.74 |  | 6.66 |

The next lines start with results.

| pIC50 [1] | pIC50 ([2]; Homo sapiens, DU-145, 96 h) | pIC50 ([3]; Homo sapiens, HCT-116, 96 h) | pIC50 ([5]; Homo sapiens, 96 h) | pIC50 ([6]; Homo sapiens, 96 h) | pIC50 [2] | pIC50 [3] | pIC50 [5] | pIC50 [6] | Compound | pIC50 ([4]; Homo sapiens, 96 h) | pIC50 [4] |
| --- | --- | --- | --- | --- | --- | --- | --- | --- | --- | --- | --- |
|  |  |  |  |  | 5.55 | 5.74 | 6.10 | 5.74 | COc1cc2c(cc1OS(N)(=O)=O)CC[C@@H]1[C@@H]2CC[C@]2(C)[C@@H](OS(N)(=O)=O)CCC[C@@H]12 [(4), 2-Methoxy-17a-homoestra-1,3,5(10)-triene-3,17aβ-diyl Bissulfamate] |  | 6.22 |
| 5.57 |  |  |  |  | 5.72 | 5.96 | 6.70 | 5.74 | COc1cc2c(cc1O)CC[C@@H]1[C@@H]2CC[C@]2(C)[C@@H](O)CC[C@@H]12 [2-Methoxyestradiol, reference compound] |  | 5.66 |
